# Reference: PubChem BioAssay AID256 (DTP/NCI, 2004)
# Values joined by “and” are separate entries in the source; they are usually repeats but may differ in a detail not shown here. Equal values may be shown once. Inconclusive results and toxic doses are left out. Residues, ends and D or L forms follow the SMILES beside them.
# System: CD2F1 mice, L1210 leukemia ip, survival T/C
# Assay: NCI In Vivo Anticancer Drug Screen. Data for tumor model L1210 Leukemia (intraperitoneal) in CD2F1 (CDF1) mice
# Settings: higher = longer survival
# Summary of the method: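 Read-out first: treated-group measurement over vehicle-control measurement, expressed as a ratio. Animals bore a transplanted tumor line and were dosed with compound or vehicle.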
# [1] = endpoint: mean survival time, dose: 100.0 mg/kg/injection, schedule: Q01DX009 (ip), vehicle: saline with Tween-80
# [2] = endpoint: mean survival time, dose: 100.0 mg/kg/injection, schedule: Q04DX003 (ip), vehicle: saline with Tween-80
# [3] = endpoint: mean survival time, dose: 200.0 mg/kg/injection, schedule: Q01DX009 (ip), vehicle: saline with Tween-80
# [4] = endpoint: mean survival time, dose: 200.0 mg/kg/injection, schedule: Q04DX003 (ip), vehicle: saline with Tween-80
# [5] = endpoint: mean survival time, dose: 400.0 mg/kg/injection, schedule: Q04DX003 (ip), vehicle: saline with Tween-80
# [6] = endpoint: mean survival time, dose: 100.0 mg/kg/injection, schedule: Q01DX001 (ip), vehicle: saline with Tween-80
# [7] = endpoint: mean survival time, dose: 200.0 mg/kg/injection, schedule: Q01DX001 (ip), vehicle: saline with Tween-80
# [8] = endpoint: mean survival time, dose: 400.0 mg/kg/injection, schedule: Q01DX001 (ip), vehicle: saline with Tween-80
# [9] = endpoint: mean survival time, dose: 12.5 mg/kg/injection, schedule: Q01DX009 (ip), vehicle: saline with Tween-80
# [10] = endpoint: mean survival time, dose: 25.0 mg/kg/injection, schedule: Q01DX009 (ip), vehicle: saline with Tween-80
# [11] = endpoint: mean survival time, dose: 100.0 mg/kg/injection, schedule: Q04DX002 (ip), vehicle: saline with Tween-80
# [12] = endpoint: mean survival time, dose: 200.0 mg/kg/injection, schedule: Q04DX002 (ip), vehicle: saline with Tween-80
# [13] = endpoint: mean survival time, dose: 400.0 mg/kg/injection, schedule: Q04DX002 (ip), vehicle: saline with Tween-80
# [14] = endpoint: mean survival time, dose: 50.0 mg/kg/injection, schedule: Q01DX009 (ip), vehicle: Klucel (hydroxypropylcellulose) (HPC)
# [15] = endpoint: mean survival time, dose: 100.0 mg/kg/injection, schedule: Q01DX009 (ip), vehicle: Klucel (hydroxypropylcellulose) (HPC)
# [16] = endpoint: mean survival time, dose: 200.0 mg/kg/injection, schedule: Q01DX009 (ip), vehicle: Klucel (hydroxypropylcellulose) (HPC)
smiles,measurement,setting,value
Cc1ccc(C(SCC(N)C(=O)O)(c2ccc(C)cc2)c2ccc(C)cc2)cc1 (configuration not stated),T/C,"endpoint: mean survival time, dose: 100.0 mg/kg/injection, schedule: Q01DX009 (ip), vehicle: saline",175 % of control
same,T/C,"endpoint: mean survival time, dose: 200.0 mg/kg/injection, schedule: Q01DX009 (ip), vehicle: saline",210 % of control
same,T/C,"endpoint: mean survival time, dose: 400.0 mg/kg/injection, schedule: Q01DX009 (ip), vehicle: saline",200 % of control
CS(=O)(=O)c1ccncc1,T/C,"endpoint: mean survival time, dose: 100.0 mg/kg/injection, schedule: Q04DX003 (ip), vehicle: saline sonified",95 % of control
same,T/C,"endpoint: mean survival time, dose: 200.0 mg/kg/injection, schedule: Q04DX003 (ip), vehicle: saline sonified",98 % of control
CCCCCCCCOC(=O)c1ccccc1C(=O)OCCCCCCCC,T/C,[1],110 % of control
same,T/C,[2],98 % of control
same,T/C,[3],102 % of control
same,T/C,[4],93 % of control
same,T/C,"endpoint: mean survival time, dose: 400.0 mg/kg/injection, schedule: Q01DX009 (ip), vehicle: saline with Tween-80",98 % of control
same,T/C,[5],90 % of control
[Cl][Pt+2][Cl].[NH-]c1cccc(C(F)(F)F)c1.[NH-]c1cccc(C(F)(F)F)c1,T/C,"endpoint: mean survival time, dose: 12.5 mg/kg/injection, schedule: Q04DX003 (ip), vehicle: saline with Tween-80",95 % of control
same,T/C,"endpoint: mean survival time, dose: 25.0 mg/kg/injection, schedule: Q04DX003 (ip), vehicle: saline with Tween-80",100 % of control
same,T/C,"endpoint: mean survival time, dose: 50.0 mg/kg/injection, schedule: Q04DX003 (ip), vehicle: saline with Tween-80",103 % of control
COc1cc(Cc2nccc3ccccc23)cc([N+](=O)[O-])c1OC,T/C,[6],97 % of control
same,T/C,[7],92 % of control
same,T/C,[8],89 % of control
C[Si](C)(C)O/C=C1\CCCCC1=O,T/C,"endpoint: mean survival time, dose: 6.25 mg/kg/injection, schedule: Q01DX009 (ip), vehicle: saline with Tween-80",98 % of control and 100 % of control
same,T/C,[9],96 % of control and 98 % of control
same,T/C,[10],91 % of control and 100 % of control
same,T/C,"endpoint: mean survival time, dose: 50.0 mg/kg/injection, schedule: Q01DX009 (ip), vehicle: saline with Tween-80",93 % of control and 100 % of control
same,T/C,[1],93 % of control and 102 % of control
same,T/C,[3],105 % of control
CCCCCCCCC(=O)N1CCCCC1,T/C,"endpoint: mean survival time, dose: 100.0 mg/kg/injection, schedule: Q04DX003 (ip), vehicle: saline",101 % of control
same,T/C,"endpoint: mean survival time, dose: 200.0 mg/kg/injection, schedule: Q04DX003 (ip), vehicle: saline",102 % of control
same,T/C,"endpoint: mean survival time, dose: 400.0 mg/kg/injection, schedule: Q04DX003 (ip), vehicle: saline",96 % of control
C/C=C/c1cnc(N)nc1-c1ccc(OC)cc1,T/C,[6],97 % of control
same,T/C,[7],94 % of control
same,T/C,[8],97 % of control
c1ccc(CSc2ncnc3nc[nH]c23)nc1,T/C,"endpoint: mean survival time, dose: 133.0 mg/kg/injection, schedule: Q04DX003 (ip), vehicle: saline with Tween-80",117 % of control
same,T/C,"endpoint: mean survival time, dose: 300.0 mg/kg/injection, schedule: Q04DX003 (ip), vehicle: saline with Tween-80",102 % of control
CC(O)C(NC(=O)C(N)CCCN=C(N)N)C(=O)NC(Cc1ccccc1)C(=O)O (stereo not drawn) (H-Arg-Thr-Phe-OH; configuration not given here),T/C,"endpoint: mean survival time, dose: 12.5 mg/kg/injection, schedule: Q04DX002 (ip), vehicle: saline",98 % of control
same,T/C,"endpoint: mean survival time, dose: 25.0 mg/kg/injection, schedule: Q04DX002 (ip), vehicle: saline",95 % of control
same,T/C,"endpoint: mean survival time, dose: 50.0 mg/kg/injection, schedule: Q04DX002 (ip), vehicle: saline",98 % of control
CCCC[N+](CCCC)(CCCC)CCCC.[Cl-].[Cl-].[Cl-].[Cl-].[Cl-].[Cl-].[Cl-].[Cl-].[Re].[Re],T/C,[11],112 % of control
same,T/C,[12],112 % of control
same,T/C,[13],116 % of control
O=C1C(c2ccccc2)=C(c2ccccc2)c2ccc(Cl)cc21,T/C,[6],106 % of control
same,T/C,[7],98 % of control
same,T/C,[8],97 % of control
CC1=C(C)C(C(=O)O)C1C(=O)O (configuration not stated),T/C,[6],88 % of control
same,T/C,[7],97 % of control
CCCCCCCCN(c1ccc(I)cc1)S(=O)(=O)c1ccc(C)cc1,T/C,[2],94 % of control
same,T/C,[4],94 % of control
Cc1cc(=O)[nH]c(=O)[nH]1,T/C,"endpoint: mean survival time, dose: 50.0 mg/kg/injection, schedule: Q01DX001 (ip), vehicle: Klucel (hydroxypropylcellulose) (HPC)",95 % of control
same,T/C,[14],98 % of control
same,T/C,"endpoint: mean survival time, dose: 100.0 mg/kg/injection, schedule: Q01DX001 (ip), vehicle: Klucel (hydroxypropylcellulose) (HPC)",104 % of control
same,T/C,[15],98 % of control
same,T/C,"endpoint: mean survival time, dose: 200.0 mg/kg/injection, schedule: Q01DX001 (ip), vehicle: Klucel (hydroxypropylcellulose) (HPC)",98 % of control
same,T/C,[16],102 % of control
Cc1ccc(S(=O)(=O)N(O)c2ccccc2)cc1,T/C,[2],100 % of control
same,T/C,[4],100 % of control
same,T/C,[5],103 % of control
Nc1nc(N)c(-c2ccc(Cl)c(Cl)c2)c(CBr)n1,T/C,[9],102 % of control
same,T/C,[10],105 % of control
CC(=O)OCCC/C(=C\c1ccc(Cl)cc1)[N+](=O)[O-],T/C,"endpoint: mean survival time, dose: 100.0 mg/kg/injection, schedule: Q01DX001 (ip), vehicle: saline",100 % of control
same,T/C,"endpoint: mean survival time, dose: 200.0 mg/kg/injection, schedule: Q01DX001 (ip), vehicle: saline",102 % of control
same,T/C,"endpoint: mean survival time, dose: 400.0 mg/kg/injection, schedule: Q01DX001 (ip), vehicle: saline",98 % of control
C[C@]12CC[C@H](O)CC1=CC[C@@H]1[C@@H]2CC[C@]2(C)C(=O)CC[C@@H]12,T/C,[14],98 % of control
same,T/C,[15],102 % of control
same,T/C,[16],94 % of control
same,T/C,"endpoint: median survival time, dose: 25.0 mg/kg/injection, schedule: Q01DX009 (ip), vehicle: saline with Tween-80",101 % of control
same,T/C,"endpoint: median survival time, dose: 50.0 mg/kg/injection, schedule: Q01DX009 (ip), vehicle: saline with Tween-80",101 % of control
same,T/C,"endpoint: median survival time, dose: 100.0 mg/kg/injection, schedule: Q01DX009 (ip), vehicle: saline with Tween-80",92 % of control
same,T/C,"endpoint: median survival time, dose: 200.0 mg/kg/injection, schedule: Q01DX009 (ip), vehicle: saline with Tween-80",92 % of control
same,T/C,"endpoint: median survival time, dose: 400.0 mg/kg/injection, schedule: Q01DX009 (ip), vehicle: saline with Tween-80",91 % of control
CC1OC(n2cc(Cl)c(=O)[nH]c2=O)C2OC(C)(C)OC2C1=O (configuration not stated),T/C,"endpoint: median survival time, dose: 25.0 mg/kg/injection, schedule: Q01DX005 (ip), vehicle: Klucel (hydroxypropylcellulose) (HPC)",102 % of control
same,T/C,"endpoint: median survival time, dose: 50.0 mg/kg/injection, schedule: Q01DX005 (ip), vehicle: Klucel (hydroxypropylcellulose) (HPC)",100 % of control
same,T/C,"endpoint: median survival time, dose: 100.0 mg/kg/injection, schedule: Q01DX005 (ip), vehicle: Klucel (hydroxypropylcellulose) (HPC)",102 % of control
same,T/C,"endpoint: median survival time, dose: 200.0 mg/kg/injection, schedule: Q01DX005 (ip), vehicle: Klucel (hydroxypropylcellulose) (HPC)",107 % of control
COc1ccccc1NC(=O)Oc1ccc(-c2ccccc2)cc1Cl,T/C,[11],100 % of control
same,T/C,[12],103 % of control
same,T/C,[13],88 % of control
CC1(C)C(=O)C(Cl)C(c2ccccc2)=C1c1ccccc1 (configuration not stated),T/C,[11],101 % of control
same,T/C,[12],96 % of control
same,T/C,[13],101 % of control
Cc1nc(-c2ccccc2)nc2c1CCO2,T/C,[2],102 % of control
same,T/C,[4],100 % of control
same,T/C,[5],105 % of control
CC(=O)Oc1ccc2ccccc2c1-c1c(OC(C)=O)ccc2ccccc12,T/C,"endpoint: mean survival time, dose: 25.0 mg/kg/injection, schedule: Q04DX002 (ip), vehicle: saline with Tween-80",101 % of control
same,T/C,"endpoint: mean survival time, dose: 50.0 mg/kg/injection, schedule: Q04DX002 (ip), vehicle: saline with Tween-80",101 % of control
same,T/C,[11],101 % of control
